Values joined by “and” are separate entries in the source; they are usually repeats but may differ in a detail not shown here. Equal values may be shown once. Inconclusive results and toxic doses are left out. No stated cut-off is given here; in the data, active means T/C of 150% or more; inactive means T/C below 125%.
Tested on: L1210 leukemia ip in BDF1 mice, survival T/C
Assay: NCI In Vivo Anticancer Drug Screen. Data for tumor model L1210 Leukemia (intraperitoneal) in B6D2F1 (BDF1) mice
Conditions: endpoint: mean survival time, higher = longer survival
Method in brief: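 In this screen, tumor-bearing mice given compound are compared to those given vehicle, and their survival values are reported as a treated-to-control quotient.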

[1] = dose: 50.0 mg/kg/injection, schedule: Q01DX009 (ip), vehicle: saline with Tween-80
[2] = dose: 100.0 mg/kg/injection, schedule: Q01DX009 (ip), vehicle: saline with Tween-80
[3] = dose: 100.0 mg/kg/injection, schedule: Q04DX003 (ip), vehicle: saline with Tween-80
[4] = dose: 200.0 mg/kg/injection, schedule: Q01DX009 (ip), vehicle: saline with Tween-80
[5] = dose: 200.0 mg/kg/injection, schedule: Q04DX003 (ip), vehicle: saline with Tween-80
[6] = dose: 400.0 mg/kg/injection, schedule: Q04DX003 (ip), vehicle: saline with Tween-80
[7] = dose: 100.0 mg/kg/injection, schedule: Q04DX003 (ip), vehicle: saline
[8] = dose: 200.0 mg/kg/injection, schedule: Q04DX003 (ip), vehicle: saline
[9] = dose: 400.0 mg/kg/injection, schedule: Q04DX003 (ip), vehicle: saline
[10] = dose: 100.0 mg/kg/injection, schedule: Q04DX002 (ip), vehicle: saline
[11] = dose: 200.0 mg/kg/injection, schedule: Q04DX002 (ip), vehicle: saline
[12] = dose: 100.0 mg/kg/injection, schedule: Q01DX009 (ip), vehicle: saline
[13] = dose: 200.0 mg/kg/injection, schedule: Q01DX009 (ip), vehicle: saline
[14] = dose: 400.0 mg/kg/injection, schedule: Q01DX009 (ip), vehicle: saline
[15] = dose: 100.0 mg/kg/injection, schedule: Q01DX001 (ip), vehicle: saline

Measured: T/C

CC(=NC1CC(C)CC(C)(C)C1)C1CC1 (centres undefined)
inactive: dose: 55.0 mg/kg/injection, schedule: Q01DX Z (ip), vehicle: methylcellulose (MC) 100 % of control | dose: 83.0 mg/kg/injection, schedule: Q01DX Z (ip), vehicle: methylcellulose (MC) 89 % of control | dose: 125.0 mg/kg/injection, schedule: Q01DX Z (ip), vehicle: methylcellulose (MC) 100 % of control

CCNc1nc(N)nc2n[nH]nc12
inactive: [1] 95 % of control | dose: 50.0 mg/kg/injection, schedule: Q04DX003 (ip), vehicle: saline with Tween-80 98 % of control | dose: 100.0 mg/kg/injection, schedule: Q01DX001 (ip), vehicle: saline with Tween-80 101 % of control | [2] 89 % of control | [3] 101 % of control | dose: 200.0 mg/kg/injection, schedule: Q01DX001 (ip), vehicle: saline with Tween-80 94 % of control | [4] 89 % of control | [5] 98 % of control

O=C1CCC2=C(CCCCCC2)N1c1ccccc1
inactive: [3] 110 % of control | [5] 110 % of control | [6] 98 % of control

Nc1ncnc2c(-c3ccccc3)c[nH]c12
inactive: dose: 100.0 mg/kg/injection, schedule: Q01DX001 (ip), vehicle: Klucel (hydroxypropylcellulose) (HPC) 102 % of control | dose: 100.0 mg/kg/injection, schedule: Q04DX003 (ip), vehicle: Klucel (hydroxypropylcellulose) (HPC) 100 % of control | dose: 200.0 mg/kg/injection, schedule: Q01DX001 (ip), vehicle: Klucel (hydroxypropylcellulose) (HPC) 97 % of control | dose: 200.0 mg/kg/injection, schedule: Q04DX003 (ip), vehicle: Klucel (hydroxypropylcellulose) (HPC) 100 % of control | dose: 400.0 mg/kg/injection, schedule: Q01DX001 (ip), vehicle: Klucel (hydroxypropylcellulose) (HPC) 91 % of control | dose: 400.0 mg/kg/injection, schedule: Q04DX003 (ip), vehicle: Klucel (hydroxypropylcellulose) (HPC) 104 % of control

O=S(=O)(SSS(=O)(=O)c1ccc(Cl)cc1)c1ccc(Cl)cc1
inactive: [7] 90 % of control | [8] 90 % of control | [9] 90 % of control

Cc1cc(-c2ccccc2O)nc(N)n1
inactive: [10] 90 % of control | [11] 94 % of control | dose: 400.0 mg/kg/injection, schedule: Q04DX002 (ip), vehicle: saline 90 % of control

CCc1ccc(N=C/C=C/c2ccccc2)cc1
inactive: dose: 25.0 mg/kg/injection, schedule: Q01DX009 (ip), vehicle: other 98 % of control | dose: 50.0 mg/kg/injection, schedule: Q01DX009 (ip), vehicle: other 98 % of control | dose: 100.0 mg/kg/injection, schedule: Q01DX009 (ip), vehicle: other 98 % of control and 110 % of control

O=C(Nc1ccc(CC2=NCCCN2)cc1)c1ccc(C(=O)Nc2ccc(CC3=NCCCN3)cc2)cc1
inactive: dose: 0.5 mg/kg/injection, schedule: Q01DX Z (ip), vehicle: water 95 % of control | dose: 1.0 mg/kg/injection, schedule: Q01DX Z (ip), vehicle: water 103 % of control

CCCCC[P+](c1ccccc1)(c1ccccc1)c1ccccc1
inactive: dose: 12.5 mg/kg/injection, schedule: Q04DX002 (ip), vehicle: Klucel (hydroxypropylcellulose) (HPC) 109 % of control | dose: 25.0 mg/kg/injection, schedule: Q04DX002 (ip), vehicle: Klucel (hydroxypropylcellulose) (HPC) 106 % of control | dose: 50.0 mg/kg/injection, schedule: Q04DX002 (ip), vehicle: Klucel (hydroxypropylcellulose) (HPC) 109 % of control

Cc1cnc(NCCCC(N)C(=O)O)nc1 (centres undefined)
inactive: [10] 95 % of control | [11] 95 % of control

CC#CCOCC1CO1 (centres undefined)
inactive: [12] 100 % of control | dose: 100.0 mg/kg/injection, schedule: Q04DX003 (ip), vehicle: saline sonified 117 % of control | [13] 99 % of control | dose: 200.0 mg/kg/injection, schedule: Q04DX003 (ip), vehicle: saline sonified 119 % of control | [14] 96 % of control | dose: 400.0 mg/kg/injection, schedule: Q04DX003 (ip), vehicle: saline sonified 106 % of control

Cc1ccc(NCc2cccc3ccccc23)c(C)c1
inactive: [12] 96 % of control | [7] 104 % of control | [13] 97 % of control | [8] 102 % of control | [14] 94 % of control | [9] 96 % of control

O=C1OC(c2ccccc2)=C/C1=C/c1ccccc1O
inactive: [1] 95 % of control | [2] 101 % of control | [4] 96 % of control

C[N+]1(C)CCCCC1
inactive: dose: 12.5 mg/kg/injection, schedule: Q01DX009 (ip), vehicle: saline 106 % of control | dose: 25.0 mg/kg/injection, schedule: Q01DX009 (ip), vehicle: saline 101 % of control | dose: 50.0 mg/kg/injection, schedule: Q01DX009 (ip), vehicle: saline 97 % of control | dose: 50.0 mg/kg/injection, schedule: Q04DX003 (ip), vehicle: saline 101 % of control

CC1=C(Br)C(=O)NC1=O
inactive: [3] 107 % of control | [5] 101 % of control | [6] 107 % of control

C/C=C(/C#N)c1ccccc1
inactive: [1] 107 % of control | [2] 106 % of control | [3] 90 % of control | [4] 100 % of control | [5] 96 % of control

Cc1c(CCO)sc[n+]1Cc1ccccc1[N+](=O)[O-]
inactive: dose: 5.0 mg/kg/injection, schedule: Q01DX001 (ip), vehicle: saline 102 % of control | dose: 10.0 mg/kg/injection, schedule: Q01DX001 (ip), vehicle: saline 100 % of control | dose: 20.0 mg/kg/injection, schedule: Q01DX001 (ip), vehicle: saline 102 % of control | dose: 40.0 mg/kg/injection, schedule: Q01DX001 (ip), vehicle: saline 105 % of control | dose: 80.0 mg/kg/injection, schedule: Q01DX001 (ip), vehicle: saline 98 % of control | [15] 93 % of control

CCC(C)CCC(C)C1CCC2C3CCC4C=C(OC(C)=O)CCC4(C)C3CCC12C (centres undefined)
inactive: dose: 100.0 mg/kg/injection, schedule: Q04DX002 (ip), vehicle: saline with Tween-80 103 % of control | dose: 200.0 mg/kg/injection, schedule: Q04DX002 (ip), vehicle: saline with Tween-80 98 % of control | dose: 400.0 mg/kg/injection, schedule: Q04DX002 (ip), vehicle: saline with Tween-80 98 % of control

Nc1ccc2c(c1)C(=O)c1c(F)cccc1-2
inactive: dose: 100.0 mg/kg/injection, schedule: Q04DX003 (ip), vehicle: acetone 98 % of control | dose: 200.0 mg/kg/injection, schedule: Q04DX003 (ip), vehicle: acetone 94 % of control | dose: 400.0 mg/kg/injection, schedule: Q04DX003 (ip), vehicle: acetone 91 % of control

O=C(CCCC(=O)N=Nc1c(Cl)c(O)c2ccccc2c1O)N=Nc1c(Cl)c(O)c2ccccc2c1O
inactive: dose: 100.0 mg/kg/injection, schedule: Q01DX001 (ip), vehicle: carboxymethylcellulose (CMC) 118 % of control | dose: 200.0 mg/kg/injection, schedule: Q01DX001 (ip), vehicle: carboxymethylcellulose (CMC) 101 % of control | dose: 400.0 mg/kg/injection, schedule: Q01DX001 (ip), vehicle: carboxymethylcellulose (CMC) 103 % of control

CN1CCCC2C(c3ccccc3)C(C3=NCCCC3)C(c3ccccc3)CC21 (centres undefined)
inactive: [15] 88 % of control
